Measured values as given in patent US8431378B2, “Aminotransferase, gene encoding the same, and methods of using them” (Kaneka Corporation, priority 2005, dated 2013).
“Also recorded” adds a separate entry of the source.

Tests used:
[1] = tested on: purified enzyme MTA (aminotransferase); assay: Specificity for amino acceptor, (S)-α-phenethylamine as donor (Examples 5 and 6); type: biochemical, Pseudomonas fluorescens KNK08-18; details: for Activity as amino acceptor (in words): donor (S)-α-phenethylamine
Method: The purified enzyme obtained in Example 1 was analyzed in terms of substrate specificity regarding amino acceptors. In 20 μL of the purified Enzyme, 380 μL of a 0.1M potassium phosphate buffer containing 14 mM of (S)-α-phenethylamine and 14 mM of a ketone compound of various type was added. After the mixture was reacted at 30° C. for 1 hour, 20 μL of 3N hydrochloric acid was added therein to stop the reaction. Results of the analysis are shown in Table 3, in which the relative activities are shown where the activity with pyruvic acid as the amino acceptor is 100.
(§1) [Analysis Conditions of High-Performance Liquid Chromatography]
(§2) • Column: Cosmosil 5C8-MS (Nacalai Tesque Inc.) • Carrier: 30 mM potassium phosphate buffer (pH 2.5)/acetonitrile/methanol=4/1/1 (by volume) • Flow Rate: 0.9 mL/min • Detection: 254 nm
The purified enzyme obtained in Example 1 was analyzed in terms of substrate specificity regarding amino acceptors in the same manner as in Example 5.

[2] = tested on: purified enzyme MTA (aminotransferase); assay: Specificity for amino donor, 7-methoxy-2-tetralone as amino acceptor (Example 3); type: biochemical, Pseudomonas fluorescens KNK08-18; details: amino donor varied, 14 mM (racemic 28 mM); acceptor 14 mM 7-methoxy-2-tetralone; 30° C., 1 hour; activity with (S)-α-phenethylamine is 100
Method: In 20 μL of the purified Enzyme, 380 μL of a 0.1M potassium phosphate buffer containing 14 mM of 7-methoxy-2-tetralone and 14 mM (in case of the racemic amine compound, 28 mM)) of an amine compound of various type was added. After the mixture was reacted at 30° C. for 1 hour, 20 μL of 3N hydrochloric acid was added therein to stop the reaction. The reaction solution thus obtained was analyzed via high-performance liquid chromatography so as to quantitatively analyze 7-methoxy-2-aminotetralin thus obtained. Thereby, the amino group transfer activities with the various amino compounds were analyzed.
as §1, §2

[3] = Table 3: amino acceptor varied, 14 mM, donor 14 mM (S)-α-phenethylamine, 30° C., 1 hour, activity with pyruvic acid is 100
[4] = Table 4: amino acceptor varied, same manner as in Example 5, donor (S)-α-phenethylamine

Compound	Relative Activity (%) [2] [%]	Relative Activity (%) [1, 4] [%]	other results
O=Cc1ccccc1 [Benzaldehyde]			Relative Activity (%) [1, 3]: 2%
CCCCC(N)CC (racemic) [±3-heptylamine]	19		
CCCCCC(C)=O [2-Heptane]		7	
O=C1CCc2ccccc2C1 [2-Tetralone]		17	
CCN [n-ethylamine]	6		
CCCC(=O)C(=O)O [2-Keto-n-Valeric Acid]			Relative Activity (%) [1, 3]: 0.1%
C[C@H](N)C(=O)O [L-alanine]	20		
COc1ccc2c(c1)CC(=O)CC2 [7-Methoxy-2-Tetralone]		10	
O=C1CCN(Cc2ccccc2)C1 [1-Benzyl-3-Pyrrolidinone]		20	
CCCC=O [Butylaldehyde]			Relative Activity (%) [1, 3]: 18%
COc1cccc(C(C)=O)c1 [3′-Methoxyacetophenone]		10	
CCCC(C)N (racemic) [±2-pentylamine]	60		
CCCCCN [n-amylamine]	11		
CC(=O)c1cccnc1 [3-Acetylpyridine]		10	
O=CC(=O)O [Glyoxylic Acid]			Relative Activity (%) [1, 3]: 99%; Activity as amino acceptor (in words) [1]: high activity; also recorded: active
CC(=O)CCc1ccccc1 [Benzylacetone]		33	
CC(=O)c1cccc(O)c1 [3′-Hydroxyacetophenone]		3	
CC(=O)c1cccc(C(F)(F)F)c1 [3′-Trifluoromethylacetophenone]		40	

Compound	Relative Activity (%) [2] [%]	Relative Activity (%) [1, 4] [%]	other results
CC(C)N [isopropylamine]	10		
NC1CCCCC1 [cyclohexylamine]	22		
NCc1ccccc1 [benzylamine]	35		
CC(=O)c1cnccn1 [Acetylpyrazine]		100	
CCC(=O)C(=O)O [2-Ketobutyric Acid]			Relative Activity (%) [1, 3]: 2%
CC(=O)C(=O)O [Pyruvic Acid, reference compound]			Relative Activity (%) [1, 3]: 100%; Activity as amino acceptor (in words) [1]: high activity; also recorded: active
CCC(C)N (racemic) [±2-butylamine]	48		
CCCCN [n-butylamine]	7		
CC(N)CCc1ccccc1 (racemic) [±3-amino-1-phenylbutane]	90		
COCC(C)=O [Methoxypropanone]		13	
CC(C)CN [isobutylamine]	8		
CC(=O)c1ccc(Cl)cc1 [4′-Chloroacetophenone]		30	
CCCN [n-propylamine]	6		
CCC=O [Propionaldehyde]			Relative Activity (%) [1, 3]: 5%
O=C(O)CCC(=O)C(=O)O [2-Ketoglutaric Acid]			Relative Activity (%) [1, 3]: 0%; Activity as amino acceptor (in words) [1]: no activity
NCCc1ccccc1 [β-phenethylamine]	22		
COc1ccc(CC(C)N)cc1OC (racemic) [±3′,4′-dimethoxyamphetamine]	88		
CCCCCC(C)N (racemic) [±2-heptylamine]	93		
